One may read the melting point as the temperature of the solid-liquid transition. Consider `Cc1nc(-c2ccc3ccc(Cn4ccc5nc(C(C)C)n(Cc6ccc7ccc(-c8noc(C)n8)cc7c6)c5c4=O)cc3c2)no1` [BC2, 2-isopropyl-3-[7-(5-methyl[1,2,4]oxadiazol-3-yl)naphth-2-ylmethyl]-5-[7-(5-methyl[1,2,4]oxadiazol-3-yl)naphth-2-ylmethyl]-3,5-dihydroimidazo[4,5-c]pyridin-4-one], for which the melting point fell in the range of 201 to 202 °C.

The compound `Cc1nc(-c2ccc(Cn3ccc4nc(C(C)C)n(Cc5ccc6ccc(-c7noc(C)n7)cc6c5)c4c3=O)cc2)no1` [BC3, 2-isopropyl-3-[7-(5-methyl[1,2,4]oxadiazol-3-yl)naphth-2-ylmethyl]-5-[4-(5-methyl[1,2,4]oxadiazol-3-yl)benzyl]-3,5-dihydroimidazo[4,5-c]pyridin-4-one] came in with a melting point of 172 to 173 °C.

Consider `Cc1nc(-c2ccc3ccc(Cn4c(C(C)C)nc5ccn(Cc6ccccc6-c6noc(C)n6)c(=O)c54)cc3c2)no1` [BC4, 2-isopropyl-3-[7-(5-methyl[1,2,4]oxadiazol-3-yl)naphth-2-ylmethyl]-5-[2-(5-methyl[1,2,4]oxadiazol-3-yl)benzyl]-3,5-dihydroimidazo[4,5-c]pyridin-4-one], for which the melting point lay within 149 to 150 °C.

In turn, `Cc1nc(-c2ccc3ccc(Cn4c(C(C)C)nc5ccn(Cc6ccccc6)c(=O)c54)cc3c2)no1` [BC5, 2-isopropyl-3-[7-(5-methyl[1,2,4]oxadiazol-3-yl)naphth-2-ylmethyl]-5-benzyl-5H-imidazo[4,5-c]pyridin-4-one] registered a melting point of 112 to 113 °C.

The values are drawn from US6492384B1, “Imidazo (4,5-C) pyridine-4-one derivatives with factor XA inhibiting effect” (Merck Patent GmbH, priority 1998, dated 2002).
